Test results as given in publication PMC3399817 (PLoS ONE, 2012).

Key:
Experiment in all cases: KINOMEscan
Type in all cases: binding
[1] = molecular target: T1, DRAK1 (Homo sapiens, UniProt Q9UEE5); conditions: DRAK1, 1 uM
T1 construct: purchased Ambit KINOMEscan (DiscoverX)
Method in brief: (§1)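 Test concentration 1 μM for all compounds. Values reflect interference with substrate binding, not catalytic turnover.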

[2] = molecular target: T2, FAK (Homo sapiens, UniProt Q05397); conditions: 1 uM
T2 construct: purchased Ambit KINOMEscan (DiscoverX)
Method in brief: as §1

[3] = molecular target: T3, CDK11 (Homo sapiens, UniProt Q9BWU1); conditions: CDK11, 1 uM
T3 construct: purchased Ambit KINOMEscan (DiscoverX)
Method in brief: as §1

[4] = molecular target: T4, EGFR(G719C) (Homo sapiens, UniProt P00533, G719C); conditions: 1 uM
T4 construct: purchased Ambit KINOMEscan (DiscoverX)
Method in brief: as §1

[5] = molecular target: T5, ABL1(Q252H)-nonphosphorylated (Homo sapiens, UniProt P00519, Q252H); conditions: 1 uM
T5 construct: purchased Ambit KINOMEscan (DiscoverX)
Method in brief: as §1

[6] = molecular target: T6, MLK2 (Homo sapiens, UniProt Q02779); conditions: MLK2, 1 uM
T6 construct: purchased Ambit KINOMEscan (DiscoverX)
Method in brief: as §1

[7] = molecular target: T7, MKNK2 (Homo sapiens, UniProt Q9HBH9); conditions: MKNK2, 1 uM
T7 construct: purchased Ambit KINOMEscan (DiscoverX)
Method in brief: as §1

[8] = molecular target: T8, EPHA5 (Homo sapiens, UniProt P54756); conditions: EPHA5, 1 uM
T8 construct: purchased Ambit KINOMEscan (DiscoverX)
Method in brief: as §1

[9] = molecular target: T9, PRKCD (Homo sapiens, UniProt Q05655); conditions: 1 uM
T9 construct: purchased Ambit KINOMEscan (DiscoverX)
Method in brief: as §1

[10] = molecular target: T10, PIK3CA(E545K) (Homo sapiens, UniProt P42336, E545K); conditions: 1 uM
T10 construct: purchased Ambit KINOMEscan (DiscoverX)
Method in brief: as §1

[11] = molecular target: T11, NEK7 (Homo sapiens, UniProt Q8TDX7); conditions: NEK7, 1 uM
T11 construct: purchased Ambit KINOMEscan (DiscoverX)
Method in brief: as §1

[12] = molecular target: T12, DDR1 (Homo sapiens, UniProt Q08345); conditions: DDR1, 1 uM
T12 construct: purchased Ambit KINOMEscan (DiscoverX)
Method in brief: as §1

[13] = molecular target: T13, MUSK (Homo sapiens, UniProt O15146); conditions: 1 uM
T13 construct: purchased Ambit KINOMEscan (DiscoverX)
Method in brief: as §1

[14] = molecular target: T14, EGFR (Homo sapiens, UniProt P00533); conditions: 1 uM
T14 construct: purchased Ambit KINOMEscan (DiscoverX)
Method in brief: as §1

[15] = molecular target: T15, PIM1 (Homo sapiens, UniProt P11309); conditions: PIM1, 1 uM
T15 construct: purchased Ambit KINOMEscan (DiscoverX)
Method in brief: as §1

[16] = molecular target: T16, ABL1(E255K)-phosphorylated (Homo sapiens, UniProt P00519, E255K); conditions: 1 uM
T16 construct: purchased Ambit KINOMEscan (DiscoverX)
Method in brief: as §1

[17] = molecular target: T17, LYN (Homo sapiens, UniProt P07948); conditions: 1 uM
T17 construct: purchased Ambit KINOMEscan (DiscoverX)
Method in brief: as §1

[18] = system: FLT3(ITD); conditions: 1 uM
Method in brief: as §1

[19] = molecular target: T18, ABL1(M351T)-phosphorylated (Homo sapiens, UniProt P00519, M351T); conditions: 1 uM
T18 construct: purchased Ambit KINOMEscan (DiscoverX)
Method in brief: as §1

[20] = molecular target: T19, ERK5 (Homo sapiens, UniProt Q13164); conditions: ERK5, 1 uM
T19 construct: purchased Ambit KINOMEscan (DiscoverX)
Method in brief: as §1

[21] = molecular target: T20, LOK (Homo sapiens, UniProt O94804); conditions: 1 uM
T20 construct: purchased Ambit KINOMEscan (DiscoverX)
Method in brief: as §1

[22] = molecular target: T21, CSNK1E (Homo sapiens, UniProt P49674); conditions: 1 uM
T21 construct: purchased Ambit KINOMEscan (DiscoverX)
Method in brief: as §1

[23] = molecular target: T22, ALK (Homo sapiens, UniProt Q9UM73); conditions: 1 uM
T22 construct: purchased Ambit KINOMEscan (DiscoverX)
Method in brief: as §1

[24] = molecular target: T23, ULK2 (Homo sapiens, UniProt Q8IYT8); conditions: ULK2, 1 uM
T23 construct: purchased Ambit KINOMEscan (DiscoverX)
Method in brief: as §1

[25] = molecular target: T24, MST2 (Homo sapiens, UniProt Q13188); conditions: MST2, 1 uM
T24 construct: purchased Ambit KINOMEscan (DiscoverX)
Method in brief: as §1

[26] = molecular target: T25, AMPK-alpha2 (Homo sapiens, UniProt P54646); conditions: AMPK-alpha2, 1 uM
T25 construct: purchased Ambit KINOMEscan (DiscoverX)
Method in brief: as §1

[27] = molecular target: T26, MEK3 (Homo sapiens, UniProt P46734); conditions: MEK3, 1 uM
T26 construct: purchased Ambit KINOMEscan (DiscoverX)
Method in brief: as §1

[28] = molecular target: T27, AKT3 (Homo sapiens, UniProt Q9Y243); conditions: AKT3, 1 uM
T27 construct: purchased Ambit KINOMEscan (DiscoverX)
Method in brief: as §1

[29] = molecular target: T28, PKN1 (Homo sapiens, UniProt Q16512); conditions: PKN1, 1 uM
T28 construct: purchased Ambit KINOMEscan (DiscoverX)
Method in brief: as §1

[30] = molecular target: T29, NDR1 (Homo sapiens, UniProt Q15208); conditions: NDR1, 1 uM
T29 construct: purchased Ambit KINOMEscan (DiscoverX)
Method in brief: as §1

[31] = molecular target: T30, DCAMKL1 (Homo sapiens, UniProt O15075); conditions: DCAMKL1, 1 uM
T30 construct: purchased Ambit KINOMEscan (DiscoverX)
Method in brief: as §1

[32] = molecular target: T31, TAOK3 (Homo sapiens, UniProt Q9H2K8); conditions: TAOK3, 1 uM
T31 construct: purchased Ambit KINOMEscan (DiscoverX)
Method in brief: as §1

[33] = molecular target: T32, FLT3(N841I) (Homo sapiens, UniProt P36888, N841I); conditions: 1 uM
T32 construct: purchased Ambit KINOMEscan (DiscoverX)
Method in brief: as §1

[34] = molecular target: T33, LIMK2 (Homo sapiens, UniProt P53671); conditions: LIMK2, 1 uM
T33 construct: purchased Ambit KINOMEscan (DiscoverX)
Method in brief: as §1

[35] = molecular target: T34, PIK3CA(E542K) (Homo sapiens, UniProt P42336, E542K); conditions: 1 uM
T34 construct: purchased Ambit KINOMEscan (DiscoverX)
Method in brief: as §1

[36] = molecular target: T35, PIK3CA(H1047Y) (Homo sapiens, UniProt P42336, H1047Y); conditions: 1 uM
T35 construct: purchased Ambit KINOMEscan (DiscoverX)
Method in brief: as §1

[37] = molecular target: T36, MKNK1 (Homo sapiens, UniProt Q9BUB5); conditions: MKNK1, 1 uM
T36 construct: purchased Ambit KINOMEscan (DiscoverX)
Method in brief: as §1

[38] = molecular target: T37, MST1 (Homo sapiens, UniProt Q13043); conditions: MST1, 1 uM
T37 construct: purchased Ambit KINOMEscan (DiscoverX)
Method in brief: as §1

[39] = molecular target: T38, BRSK1 (Homo sapiens, UniProt Q8TDC3); conditions: BRSK1, 1 uM
T38 construct: purchased Ambit KINOMEscan (DiscoverX)
Method in brief: as §1

[40] = molecular target: T39, FLT4 (Homo sapiens, UniProt P35916); conditions: FLT4, 1 uM
T39 construct: purchased Ambit KINOMEscan (DiscoverX)
Method in brief: as §1

T30 sequence (O15075 whole entry): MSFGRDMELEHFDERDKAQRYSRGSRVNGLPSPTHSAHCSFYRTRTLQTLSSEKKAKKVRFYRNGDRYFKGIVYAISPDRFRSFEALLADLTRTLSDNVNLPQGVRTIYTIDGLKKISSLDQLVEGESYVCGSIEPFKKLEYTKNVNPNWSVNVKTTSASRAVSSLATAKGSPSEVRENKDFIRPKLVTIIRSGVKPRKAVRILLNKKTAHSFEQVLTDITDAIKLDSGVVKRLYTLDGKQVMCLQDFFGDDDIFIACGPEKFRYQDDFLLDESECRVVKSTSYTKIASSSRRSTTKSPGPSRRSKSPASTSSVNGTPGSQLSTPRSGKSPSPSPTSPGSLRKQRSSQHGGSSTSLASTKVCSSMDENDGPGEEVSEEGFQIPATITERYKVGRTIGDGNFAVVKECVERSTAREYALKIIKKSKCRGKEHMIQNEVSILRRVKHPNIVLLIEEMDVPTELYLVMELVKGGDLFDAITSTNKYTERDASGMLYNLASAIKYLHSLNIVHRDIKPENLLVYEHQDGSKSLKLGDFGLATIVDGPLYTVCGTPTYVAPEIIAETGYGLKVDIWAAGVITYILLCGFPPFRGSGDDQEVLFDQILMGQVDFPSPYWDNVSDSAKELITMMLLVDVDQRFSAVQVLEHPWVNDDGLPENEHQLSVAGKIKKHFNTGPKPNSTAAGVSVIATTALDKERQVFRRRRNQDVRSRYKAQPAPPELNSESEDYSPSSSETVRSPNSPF
T36 sequence (Q9BUB5 whole entry): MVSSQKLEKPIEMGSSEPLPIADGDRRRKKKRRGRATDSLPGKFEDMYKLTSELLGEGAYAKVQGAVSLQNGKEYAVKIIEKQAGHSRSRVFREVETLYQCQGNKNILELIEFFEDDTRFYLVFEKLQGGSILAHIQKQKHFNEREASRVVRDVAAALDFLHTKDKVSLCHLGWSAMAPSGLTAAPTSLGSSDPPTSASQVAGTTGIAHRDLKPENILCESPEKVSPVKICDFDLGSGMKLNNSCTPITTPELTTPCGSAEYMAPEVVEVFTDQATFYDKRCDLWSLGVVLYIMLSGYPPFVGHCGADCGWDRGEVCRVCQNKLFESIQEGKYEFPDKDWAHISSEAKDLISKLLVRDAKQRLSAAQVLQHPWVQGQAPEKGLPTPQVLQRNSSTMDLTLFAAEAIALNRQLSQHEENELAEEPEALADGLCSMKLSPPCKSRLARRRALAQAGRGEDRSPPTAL
T6 sequence (Q02779 whole entry): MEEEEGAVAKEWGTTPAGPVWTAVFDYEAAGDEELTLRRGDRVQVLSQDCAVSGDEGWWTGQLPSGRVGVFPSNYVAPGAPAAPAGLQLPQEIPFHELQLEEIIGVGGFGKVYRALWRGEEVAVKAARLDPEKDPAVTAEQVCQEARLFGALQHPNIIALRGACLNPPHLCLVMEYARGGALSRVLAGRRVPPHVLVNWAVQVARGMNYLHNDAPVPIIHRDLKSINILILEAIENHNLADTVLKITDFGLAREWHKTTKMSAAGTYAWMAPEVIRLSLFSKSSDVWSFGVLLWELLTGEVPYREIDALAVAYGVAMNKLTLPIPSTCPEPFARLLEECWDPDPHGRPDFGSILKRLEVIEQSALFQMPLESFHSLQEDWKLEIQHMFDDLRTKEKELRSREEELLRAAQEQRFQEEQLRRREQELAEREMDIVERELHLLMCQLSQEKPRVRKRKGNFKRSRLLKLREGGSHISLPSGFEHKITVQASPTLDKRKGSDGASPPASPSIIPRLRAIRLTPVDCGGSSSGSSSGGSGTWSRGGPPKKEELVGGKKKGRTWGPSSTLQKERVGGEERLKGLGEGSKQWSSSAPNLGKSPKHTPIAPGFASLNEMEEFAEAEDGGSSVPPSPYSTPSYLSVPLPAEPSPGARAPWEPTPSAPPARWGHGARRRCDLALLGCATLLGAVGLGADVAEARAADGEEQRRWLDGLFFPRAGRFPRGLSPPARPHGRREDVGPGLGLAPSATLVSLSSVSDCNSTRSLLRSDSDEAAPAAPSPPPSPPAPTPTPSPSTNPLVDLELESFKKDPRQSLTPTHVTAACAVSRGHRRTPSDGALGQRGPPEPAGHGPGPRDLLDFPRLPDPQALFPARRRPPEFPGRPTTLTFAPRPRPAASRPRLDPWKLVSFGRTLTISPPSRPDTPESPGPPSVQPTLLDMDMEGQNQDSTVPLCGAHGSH
T10 sequence (P42336 whole entry E545K): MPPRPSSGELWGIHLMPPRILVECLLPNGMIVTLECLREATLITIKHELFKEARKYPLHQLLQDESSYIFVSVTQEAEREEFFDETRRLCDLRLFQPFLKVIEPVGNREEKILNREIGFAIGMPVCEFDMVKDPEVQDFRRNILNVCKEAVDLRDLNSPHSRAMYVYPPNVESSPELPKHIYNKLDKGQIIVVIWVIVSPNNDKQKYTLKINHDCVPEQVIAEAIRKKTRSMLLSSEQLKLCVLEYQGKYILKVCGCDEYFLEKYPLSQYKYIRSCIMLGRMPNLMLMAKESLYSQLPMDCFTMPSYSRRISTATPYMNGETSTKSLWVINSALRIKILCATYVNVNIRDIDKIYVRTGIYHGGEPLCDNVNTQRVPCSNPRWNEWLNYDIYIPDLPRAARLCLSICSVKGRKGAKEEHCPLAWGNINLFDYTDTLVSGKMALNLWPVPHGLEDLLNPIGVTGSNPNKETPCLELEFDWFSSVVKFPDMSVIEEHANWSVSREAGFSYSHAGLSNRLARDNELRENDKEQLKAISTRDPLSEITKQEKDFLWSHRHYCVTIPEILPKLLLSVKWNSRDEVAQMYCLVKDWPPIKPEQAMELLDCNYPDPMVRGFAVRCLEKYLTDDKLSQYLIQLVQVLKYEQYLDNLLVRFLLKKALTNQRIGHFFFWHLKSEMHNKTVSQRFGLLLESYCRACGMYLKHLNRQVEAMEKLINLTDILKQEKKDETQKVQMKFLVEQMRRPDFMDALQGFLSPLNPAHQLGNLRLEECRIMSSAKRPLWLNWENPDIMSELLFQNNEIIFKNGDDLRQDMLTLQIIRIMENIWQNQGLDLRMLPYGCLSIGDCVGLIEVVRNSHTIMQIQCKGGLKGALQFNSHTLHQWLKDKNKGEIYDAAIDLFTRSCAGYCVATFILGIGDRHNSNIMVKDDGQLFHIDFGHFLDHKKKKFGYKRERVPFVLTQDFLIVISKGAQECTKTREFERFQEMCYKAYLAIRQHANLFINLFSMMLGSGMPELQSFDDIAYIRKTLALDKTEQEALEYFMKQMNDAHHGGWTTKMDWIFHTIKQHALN
T9 sequence (Q05655 whole entry): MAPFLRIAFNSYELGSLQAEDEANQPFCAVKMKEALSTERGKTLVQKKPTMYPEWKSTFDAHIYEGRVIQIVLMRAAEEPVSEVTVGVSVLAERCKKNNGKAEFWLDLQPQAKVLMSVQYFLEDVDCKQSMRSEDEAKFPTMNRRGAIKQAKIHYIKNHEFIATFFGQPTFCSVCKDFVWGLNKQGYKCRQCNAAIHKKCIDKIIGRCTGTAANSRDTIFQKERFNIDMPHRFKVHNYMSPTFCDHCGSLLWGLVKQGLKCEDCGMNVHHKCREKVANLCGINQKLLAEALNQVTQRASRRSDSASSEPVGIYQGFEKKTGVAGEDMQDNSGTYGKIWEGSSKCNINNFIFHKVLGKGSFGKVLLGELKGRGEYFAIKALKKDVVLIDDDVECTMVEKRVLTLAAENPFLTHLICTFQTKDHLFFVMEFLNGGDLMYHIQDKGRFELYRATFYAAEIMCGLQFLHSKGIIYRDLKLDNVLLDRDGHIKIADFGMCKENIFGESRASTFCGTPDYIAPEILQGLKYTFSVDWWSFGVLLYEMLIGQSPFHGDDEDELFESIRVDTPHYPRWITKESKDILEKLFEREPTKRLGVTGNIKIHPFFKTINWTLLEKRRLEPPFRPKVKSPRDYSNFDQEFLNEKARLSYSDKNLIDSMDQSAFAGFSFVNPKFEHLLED
T23 sequence (Q8IYT8 whole entry): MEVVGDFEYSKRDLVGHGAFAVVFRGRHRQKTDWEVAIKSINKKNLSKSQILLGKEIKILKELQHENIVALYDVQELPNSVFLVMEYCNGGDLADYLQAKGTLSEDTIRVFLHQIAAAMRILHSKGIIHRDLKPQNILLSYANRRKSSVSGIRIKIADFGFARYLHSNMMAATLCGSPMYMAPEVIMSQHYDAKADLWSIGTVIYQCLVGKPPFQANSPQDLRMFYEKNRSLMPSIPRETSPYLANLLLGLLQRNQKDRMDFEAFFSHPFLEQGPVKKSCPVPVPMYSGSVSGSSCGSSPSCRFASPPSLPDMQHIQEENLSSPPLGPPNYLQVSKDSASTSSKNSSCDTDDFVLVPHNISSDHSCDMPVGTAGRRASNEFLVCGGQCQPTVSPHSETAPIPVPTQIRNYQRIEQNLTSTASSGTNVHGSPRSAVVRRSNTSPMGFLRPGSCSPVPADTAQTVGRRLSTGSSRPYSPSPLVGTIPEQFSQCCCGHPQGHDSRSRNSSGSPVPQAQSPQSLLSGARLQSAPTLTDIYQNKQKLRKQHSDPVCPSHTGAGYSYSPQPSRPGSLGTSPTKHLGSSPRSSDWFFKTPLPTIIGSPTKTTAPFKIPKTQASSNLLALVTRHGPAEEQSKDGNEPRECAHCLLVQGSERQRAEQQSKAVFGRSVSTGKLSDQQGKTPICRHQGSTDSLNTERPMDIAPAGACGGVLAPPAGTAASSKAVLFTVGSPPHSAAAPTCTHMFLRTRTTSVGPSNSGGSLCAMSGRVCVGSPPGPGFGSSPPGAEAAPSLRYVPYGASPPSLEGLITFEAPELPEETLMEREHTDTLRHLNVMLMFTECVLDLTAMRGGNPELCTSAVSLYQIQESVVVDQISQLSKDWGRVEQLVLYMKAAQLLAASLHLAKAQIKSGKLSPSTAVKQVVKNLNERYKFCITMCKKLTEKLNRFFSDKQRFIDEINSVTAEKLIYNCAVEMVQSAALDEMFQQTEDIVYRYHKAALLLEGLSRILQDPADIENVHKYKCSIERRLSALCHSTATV
T35 sequence (P42336 whole entry H1047Y): as the sequence (P42336 whole entry E545K) above, with K545E, H1047Y counted along it
T34 sequence (P42336 whole entry E542K): as the sequence (P42336 whole entry E545K) above, with E542K, K545E counted along it

SMILES | % binding compared to no inhibitor control [1] | % binding compared to no inhibitor control [2] | % binding compared to no inhibitor control [3] | % binding compared to no inhibitor control [4] | % binding compared to no inhibitor control [5] | % binding compared to no inhibitor control [6] | % binding compared to no inhibitor control [7] | % binding compared to no inhibitor control [8] | % binding compared to no inhibitor control [9] | % binding compared to no inhibitor control [10] | % binding compared to no inhibitor control [11] | % binding compared to no inhibitor control [12] | % binding compared to no inhibitor control [13] | % binding compared to no inhibitor control [14] | % binding compared to no inhibitor control [15] | % binding compared to no inhibitor control [16] | % binding compared to no inhibitor control [17] | % binding compared to no inhibitor control [18] | % binding compared to no inhibitor control [19] | % binding compared to no inhibitor control [20] | also measured
COc1ccc(-c2cc3nccn3c(Nc3ncccc3C(N)=O)n2)cc1OC.Cl.Cl [BAY61-3606, 2-[7-(3,4-dimethoxyphenyl)-imidazo [1,2-c]pyrimidin-5-ylamino] nicotinamide dihydrochloride, reference compound] | 57% | 69% | 100% | 68% | 85% | 91% | 1.7% | 77% | 94% | 100% | 60% | 99% | 76% | 87% | 78% | 100% | 100% | 2.1% | 81% | 87% | % binding compared to no inhibitor control [21]: 83%; % binding compared to no inhibitor control [22]: 94%; % binding compared to no inhibitor control [23]: 84%; % binding compared to no inhibitor control [24]: 69%; % binding compared to no inhibitor control [25]: 97%; % binding compared to no inhibitor control [26]: 83%; % binding compared to no inhibitor control [27]: 21%; % binding compared to no inhibitor control [28]: 90%; % binding compared to no inhibitor control [29]: 47%; % binding compared to no inhibitor control [30]: 80%; % binding compared to no inhibitor control [31]: 93%; % binding compared to no inhibitor control [32]: 100%; % binding compared to no inhibitor control [33]: 1.5%; % binding compared to no inhibitor control [34]: 98%; % binding compared to no inhibitor control [35]: 99%; % binding compared to no inhibitor control [36]: 80%; % binding compared to no inhibitor control [37]: 52%; % binding compared to no inhibitor control [38]: 85%; % binding compared to no inhibitor control [39]: 82%; % binding compared to no inhibitor control [40]: 100%
COc1ccccc1Nc1nc(-c2ccc(OC)c(OC)c2)cc2nccn12 [BAY derivative 6] | 100% | 95% | 100% | 100% | 58% | 100% | 100% | 100% | 100% | 100% | 100% | 100% | 100% | 100% | 100% | 60% | 96% | 82% | 92% | 100% | % binding compared to no inhibitor control [21]: 53%; % binding compared to no inhibitor control [22]: 100%; % binding compared to no inhibitor control [23]: 52%; % binding compared to no inhibitor control [24]: 86%; % binding compared to no inhibitor control [25]: 82%; % binding compared to no inhibitor control [26]: 100%; % binding compared to no inhibitor control [27]: 94%; % binding compared to no inhibitor control [28]: 100%; % binding compared to no inhibitor control [29]: 100%; % binding compared to no inhibitor control [30]: 100%; % binding compared to no inhibitor control [31]: 87%; % binding compared to no inhibitor control [32]: 100%; % binding compared to no inhibitor control [33]: 53%; % binding compared to no inhibitor control [34]: 89%; % binding compared to no inhibitor control [35]: 100%; % binding compared to no inhibitor control [36]: 100%; % binding compared to no inhibitor control [37]: 72%; % binding compared to no inhibitor control [38]: 87%; % binding compared to no inhibitor control [39]: 100%; % binding compared to no inhibitor control [40]: 86%
